Holding throughout (type): biochemical
For one assay, the target named is T1, human PRMT4 enzyme (Homo sapiens, UniProt Q86X55).
T1 sequence (Q86X55 1-608): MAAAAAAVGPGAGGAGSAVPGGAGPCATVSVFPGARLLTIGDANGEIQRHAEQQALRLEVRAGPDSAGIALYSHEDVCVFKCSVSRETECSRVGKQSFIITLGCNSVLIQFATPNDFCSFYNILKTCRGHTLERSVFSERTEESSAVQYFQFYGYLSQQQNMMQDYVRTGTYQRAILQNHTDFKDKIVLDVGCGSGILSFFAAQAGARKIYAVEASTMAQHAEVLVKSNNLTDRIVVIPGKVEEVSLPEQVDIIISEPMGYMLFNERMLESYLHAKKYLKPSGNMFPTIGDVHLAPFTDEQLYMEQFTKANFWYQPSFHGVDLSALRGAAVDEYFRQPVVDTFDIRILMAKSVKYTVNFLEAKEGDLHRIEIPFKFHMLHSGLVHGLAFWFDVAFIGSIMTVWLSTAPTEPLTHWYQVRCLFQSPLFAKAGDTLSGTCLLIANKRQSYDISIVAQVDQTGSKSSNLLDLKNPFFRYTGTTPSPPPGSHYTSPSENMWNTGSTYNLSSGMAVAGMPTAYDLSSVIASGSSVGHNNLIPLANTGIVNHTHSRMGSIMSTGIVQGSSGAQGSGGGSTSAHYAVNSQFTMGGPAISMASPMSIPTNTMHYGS
The assay can be described thus: PRMT4 inhibition assay (radioactive [3H]SAM methyl transfer, filter binding). Particulars: 60 nM [3H]SAM, 25 nM Histone H3 full length, 1 h at 22°C; for inhibition at 10 µM: read-out: PRMT4/CARM1 10µM, percent inhibition of the control enzyme activity; for IC50: read-out: PRMT4/CARM1 IC50; for inhibition at 100 µM: read-out: PRMT4/CARM1 100µM, percent inhibition of the control enzyme activity. The method, then:
(§1) The inhibitory effect of compounds on the methyltransferase activity of human PRMT was evaluated via the measurement of its capacity to transfer methyl groups in a radioactivity assay.
The test compound, reference compound, or water (control) were incubated for 1 h at 22°C with 2.5 ng human PRMT4 enzyme, 60 nM [^3H]SAM and 25 nM Histone H3 full length in a buffer containing 45 mM Tris-HCl (pH 8), 45 mM NaCl, 4.5 mM MgCl2 and 3.6 mM DTT.
(§2) For control basal measurements, the enzyme is omitted from the reaction mixture. Following incubation, the reaction is stopped by adding 33 mM citric acid and the samples are filtered rapidly under vacuum through glass fiber filters (GF/B, Packard) presoaked with 33 mM citric acid and rinsed several times with ice-cold 33 mM citric acid using a 96-sample cell harvester (Unifilter, Packard). The filters are dried then counted for radioactivity in a scintillation counter (Topcount, Packard) using a scintillation cocktail (Microscint 0, Packard).
The results are expressed as a percent inhibition of the control enzyme activity. The standard reference compound is SAH, which is tested in each experiment at several concentrations to obtain a competition curve from which its IC50 is calculated (Selvi et al., 2010, J. Biol. Chem., 285: 7143).

A further assay has as its target human PRMT6 enzyme (Homo sapiens, UniProt Q96LA8). Kind of assay: PRMT6 inhibition assay (radioactive [3H]SAM methyl transfer, filter binding). The following applies: 120 nM [3H]SAM, 25 nM Histone H3 full length, 120 min at 22°C; for inhibition at 10 µM: compound at 10µM, read-out: PRMT6 10µM, percent inhibition of the control enzyme activity; for inhibition at 100 µM: read-out: PRMT6 100µM, percent inhibition of the control enzyme activity. The procedure:
as §1
The test compound, reference compound, or water (control) were incubated for 120 min at 22°C with 10 ng human PRMT6 enzyme, 120 nM [^3H]SAM and 25 nM Histone H3 full length in a buffer containing 45 mM Tris-HCl (pH 8), 45 mM NaCl, 4.5 mM MgCl2 and 3.6 mM DTT.
as §2
The results are expressed as a percent inhibition of the control enzyme activity. The standard reference compound is SAH, which is tested in each experiment at several concentrations to obtain a competition curve from which its IC50 is calculated. (lberg et al., 2007, J. Biol. Chem., 283: 3006).

For another assay, the target named is human PRMT1 enzyme (Homo sapiens, UniProt Q99873). The assay can be described thus: PRMT1 inhibition assay (radioactive [3H]SAM methyl transfer, filter binding). Particulars: compound at 100µM, 700 nM [3H]SAM, 50 nM Histone H4 full length, 20 min at 22°C; for inhibition at 100 µM: read-out: PRMT1 100µM, percent inhibition of the control enzyme activity. The procedure:
as §1
The test compound, reference compound, or water (control) were incubated for 20 min at 22°C with 20 ng human PRMT1 enzyme, 700 nM [^3H]SAM and 50 nM Histone H4 full length in a buffer containing 45 mM Tris-HCl (pH 8), 4.5 mM MgCl2, 45 mM NaCl and 3.6 mM DTT.
as §2
The results are expressed as a percent inhibition of the control enzyme activity. The standard reference compound is SAH, which is tested in each experiment at several concentrations to obtain a competition curve from which its IC50 is calculated (Cheng et al., 2004, J. Biol. Chem. 279:23892).

For another assay, the target named is T2, human PRMT7 enzyme (Homo sapiens, UniProt Q9NVM4).
T2 sequence (Q9NVM4 1-692): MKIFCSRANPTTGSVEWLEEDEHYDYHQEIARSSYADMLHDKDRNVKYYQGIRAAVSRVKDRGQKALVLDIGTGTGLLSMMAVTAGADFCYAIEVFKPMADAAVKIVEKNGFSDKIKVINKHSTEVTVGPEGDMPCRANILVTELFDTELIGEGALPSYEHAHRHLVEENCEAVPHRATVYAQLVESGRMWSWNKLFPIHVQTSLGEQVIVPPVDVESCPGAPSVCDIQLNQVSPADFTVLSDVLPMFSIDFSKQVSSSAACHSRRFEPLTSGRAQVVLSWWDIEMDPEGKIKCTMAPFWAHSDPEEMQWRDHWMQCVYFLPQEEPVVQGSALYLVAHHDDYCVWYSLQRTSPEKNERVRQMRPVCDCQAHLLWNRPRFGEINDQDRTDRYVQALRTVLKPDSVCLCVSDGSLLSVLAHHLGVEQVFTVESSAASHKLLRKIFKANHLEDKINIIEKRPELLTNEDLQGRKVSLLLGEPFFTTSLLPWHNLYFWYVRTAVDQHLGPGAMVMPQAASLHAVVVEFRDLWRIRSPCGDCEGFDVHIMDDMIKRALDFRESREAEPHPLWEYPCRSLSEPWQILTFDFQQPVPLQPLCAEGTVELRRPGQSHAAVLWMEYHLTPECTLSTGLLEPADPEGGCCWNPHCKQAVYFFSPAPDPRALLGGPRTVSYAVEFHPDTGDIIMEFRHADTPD
Kind of assay: PRMT7 inhibition assay (radioactive [3H]SAM methyl transfer, filter binding). Particulars: 250 nM [3H]SAM, 4 nM Histone H2B (21-41) biotin labelled, 90 min at 22°C; for inhibition at 10 µM: read-out: PRMT7 10µM, percent inhibition of the control enzyme activity; for inhibition at 100 µM: read-out: PRMT7 100µM, percent inhibition of the control enzyme activity. The method, then: as §1
The test compound, reference compound, or water (control) were incubated for 90 min at 22°C with 12.5 ng human PRMT7 enzyme, 250 nM [^3H]SAM and 4 nM Histone H2B (21-41) biotin labelled in a buffer containing 45 mM Tris-HCl (pH 8.7), 0.0045% Tween20, 0.009% HSA and 0.9 mM DTT.
as §2
The results are expressed as a percent inhibition of the control enzyme activity. The standard reference compound is SAH, which is tested in each experiment at several concentrations to obtain a competition curve from which its IC50 is calculated (Zurita-Lopez et al., 2012, J. Biol. Chem., 287(11):7859).

Sequence of human PRMT1 enzyme (Q99873 whole entry): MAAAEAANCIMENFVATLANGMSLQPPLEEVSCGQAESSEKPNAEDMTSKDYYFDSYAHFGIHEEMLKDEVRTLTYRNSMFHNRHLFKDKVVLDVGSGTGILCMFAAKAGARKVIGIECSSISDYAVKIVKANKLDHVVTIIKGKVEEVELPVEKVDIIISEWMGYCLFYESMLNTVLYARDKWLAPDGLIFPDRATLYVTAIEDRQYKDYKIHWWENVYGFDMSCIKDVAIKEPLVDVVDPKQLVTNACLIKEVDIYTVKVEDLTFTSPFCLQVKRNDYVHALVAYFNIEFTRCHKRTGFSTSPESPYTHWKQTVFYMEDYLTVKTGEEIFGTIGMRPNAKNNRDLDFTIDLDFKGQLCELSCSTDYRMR
Sequence of human PRMT6 enzyme (Q96LA8 whole entry): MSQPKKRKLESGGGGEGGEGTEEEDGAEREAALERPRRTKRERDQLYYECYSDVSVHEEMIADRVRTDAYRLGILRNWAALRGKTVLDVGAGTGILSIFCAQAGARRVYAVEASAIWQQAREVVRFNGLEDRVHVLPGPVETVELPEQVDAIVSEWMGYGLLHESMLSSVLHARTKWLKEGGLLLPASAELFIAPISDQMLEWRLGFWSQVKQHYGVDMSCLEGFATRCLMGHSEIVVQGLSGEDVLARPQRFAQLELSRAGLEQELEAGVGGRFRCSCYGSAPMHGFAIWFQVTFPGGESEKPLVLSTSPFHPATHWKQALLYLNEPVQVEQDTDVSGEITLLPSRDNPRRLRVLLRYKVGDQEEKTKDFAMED

In the case of `Nc1nc(=O)n(CCOc2ccccc2)cc1CNCCC1OC(n2cnc3c(N)ncnc32)C(O)C1O` (centres unmarked) [E, 5'-deoxy-5'-(N-((1-(2-(4-phenoxy)ethyl)-cytosin-5-yl)methyl)-aminomethyl) adenosine], the inhibition at 10 µM at human PRMT4 enzyme (compound at 10µM) was found to be 35%.

Consider “1-(methoxymethyl)-5-(N-(5'-deoxyadenosin-5'-yl)aminomethyl)cytosine”, for which the “PRMT6 100µM, percent inhibition of the control enzyme activity” value at human PRMT6 enzyme (compound at 100µM) was found to be 20%. Moreover, the “PRMT1 100µM, percent inhibition of the control enzyme activity” value at human PRMT1 enzyme worked out at 13%. Further, the IC50 on human PRMT4 enzyme was found to be 1.9 µM. For the same compound, the “PRMT4/CARM1 10µM, percent inhibition of the control enzyme activity” value on human PRMT4 enzyme (compound at 10µM) was 81%. Besides, the “PRMT4/CARM1 100µM, percent inhibition of the control enzyme activity” value on human PRMT4 enzyme (compound at 100µM) came to 99%. Also, the “PRMT7 10µM, percent inhibition of the control enzyme activity” value on human PRMT7 enzyme (compound at 10µM) is 33%. On human PRMT7 enzyme (compound at 100µM), the “PRMT7 100µM, percent inhibition of the control enzyme activity” value turned out to be 89%.

For the compound `COCn1cc(CN(CCC(N)C(=O)O)CC2OC(n3cnc4c(N)ncnc43)C(O)C2O)c(N)nc1=O` (centres unmarked) [Compound B], the inhibition at 10 µM amounted to 3% on human PRMT6 enzyme, 21% at human PRMT4 enzyme (compound at 10µM) and 30% at human PRMT7 enzyme (compound at 10µM). The inhibition at 100 µM on human PRMT6 enzyme (compound at 100µM) was 61%; at human PRMT1 enzyme it was 24%; on human PRMT4 enzyme (compound at 100µM), 59%; on human PRMT7 enzyme (compound at 100µM) it was 81%.

Regarding `COCn1cc(CN(CCC(N)C(=O)O)CCC2OC(n3cnc4c(N)ncnc43)C(O)C2O)c(N)nc1=O` (centres unmarked) [D], the inhibition at 10 µM on human PRMT6 enzyme is 8%; on human PRMT4 enzyme (compound at 10µM), 54%; on human PRMT7 enzyme (compound at 10µM) it was 46%. In addition, the inhibition at 100 µM on human PRMT6 enzyme (compound at 100µM) is 47%; at human PRMT1 enzyme it was 42%; on human PRMT4 enzyme (compound at 100µM), 88%; at human PRMT7 enzyme (compound at 100µM), 83%. For the same compound, on human PRMT4 enzyme, the IC50 amounted to 14 µM.

For `Nc1nc(=O)n(CCOc2ccc(Br)cc2)cc1CNCC[C@H]1O[C@@H](n2cnc3c(N)ncnc32)[C@H](O)[C@@H]1O` [F, 5'-deoxy-5'-(N-((1-(2-(4-bromophenoxy)ethyl)-cytosin-5-yl)methyl)-aminomethyl) adenosine], at human PRMT4 enzyme (compound at 10µM), the inhibition at 10 µM came to 43%.

For the compound `COCn1cc(CNC[C@H]2O[C@@H](n3cnc4c(N)ncnc43)[C@H](O)[C@@H]2O)c(N)nc1=O` [Compound A, 1-(methoxymethyl)-5-(N-(5'-deoxyadenosin-5'-yl)aminomethyl)cytosine 5'-deoxy-5'-((1-(methoxymethyl)cytosin-5-yl)methylamino)adenosine], the values for the inhibition at 100 µM on human PRMT4 enzyme (compound at 100µM) and on human PRMT7 enzyme (compound at 100µM) were 21% and 12%, respectively.
